We go through 37 molecules from BindingDB's records for doi:10.7270/Q2DN43N5 (Burnham Center For Chemical Genomics, 2013).

For the assay, the target named is T1, Tyrosine-protein phosphatase non-receptor type 22 (Homo sapiens, UniProt Q9Y2R2).
T1 sequence (Q9Y2R2 whole entry): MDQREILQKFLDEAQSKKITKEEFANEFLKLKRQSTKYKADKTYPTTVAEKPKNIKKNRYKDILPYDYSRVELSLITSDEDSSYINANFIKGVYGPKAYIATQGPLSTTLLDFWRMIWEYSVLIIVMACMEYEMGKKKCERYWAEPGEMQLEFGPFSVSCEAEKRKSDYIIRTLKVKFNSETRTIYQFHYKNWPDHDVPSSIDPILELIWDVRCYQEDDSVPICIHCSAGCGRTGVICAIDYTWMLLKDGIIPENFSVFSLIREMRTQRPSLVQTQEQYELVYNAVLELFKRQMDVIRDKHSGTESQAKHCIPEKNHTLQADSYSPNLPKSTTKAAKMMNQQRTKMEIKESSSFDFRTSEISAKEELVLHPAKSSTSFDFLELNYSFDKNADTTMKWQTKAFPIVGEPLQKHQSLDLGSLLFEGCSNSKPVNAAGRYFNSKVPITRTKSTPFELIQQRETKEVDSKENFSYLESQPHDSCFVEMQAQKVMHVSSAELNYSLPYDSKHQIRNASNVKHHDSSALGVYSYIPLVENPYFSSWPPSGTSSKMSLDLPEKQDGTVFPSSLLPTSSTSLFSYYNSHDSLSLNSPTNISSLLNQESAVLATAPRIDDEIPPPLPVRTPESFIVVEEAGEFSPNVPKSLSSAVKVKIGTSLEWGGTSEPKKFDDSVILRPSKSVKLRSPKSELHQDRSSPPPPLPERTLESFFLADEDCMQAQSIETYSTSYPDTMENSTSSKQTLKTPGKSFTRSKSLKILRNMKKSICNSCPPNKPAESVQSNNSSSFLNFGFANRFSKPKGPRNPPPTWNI

Structures are written as SMILES. Counter-ions that a name gives are not always drawn.

In general, IC50 refers to the midpoint of a concentration-inhibition curve. A higher IC50 goes with lower potency. Regarding `CCc1nc(N)nc(N)c1-c1ccc(Cl)cc1`, the concentration for half-maximal inhibition (IC50) was above 80 µM. As for `COc1ccccc1CNc1nc(NCc2cnc(C)cn2)c2sccc2n1` [2-N-[(2-methoxyphenyl)methyl]-4-N-[(5-methylpyrazin-2-yl)methyl]thieno[3,2-d]pyrimidine-2,4-diamine], the figure is above 80 µM; as for `Cc1ccc(-c2nc(NCc3cccnc3)c3ccccc3n2)cc1` [Pyridin-3-ylmethyl-(2-p-tolyl-quinazolin-4-yl)-amine], above 80 µM; as for `Cc1cc(N2CCC(C)CC2)[nH]c2cccc(=O)c1-2` [4-methyl-2-(4-methyl-1-piperidinyl)-1H-quinolin-5-one], above 80 µM. Turning to `c1ccc(-c2cc(N3CCCCC3)c3ccccc3n2)cc1` [2-phenyl-4-piperidin-1-ylquinoline], the IC50 is above 80 µM. Consider `O=C(OCCNc1nc(-c2ccccc2)nc2ccccc12)c1ccncc1` [2-[(2-phenylquinazolin-4-yl)amino]ethyl pyridine-4-carboxylate], for which the IC50 is above 80 µM.

Turning to `Cc1c(CCC(=O)O)c(=O)oc2c(C)c(OCc3ccccc3Cl)ccc12` [3-[7-[(2-chlorophenyl)methoxy]-4,8-dimethyl-2-oxochromen-3-yl]propanoic acid], the IC50 was above 80 µM. The same measure for `Cc1cccc(-c2nc(NCCCN3CCOCC3)c3ccccc3n2)c1`: above 80 µM. As for `Fc1ccccc1-c1nc(NC2CCCC2)c2ccccc2n1` [N-cyclopentyl-2-(2-fluorophenyl)quinazolin-4-amine], the figure is above 80 µM; as for `Cc1nccc(O)c1Cc1c(Cl)cccc1Cl`, above 80 µM. As for `c1ccc(-c2cc(NCCN3CCCCC3)c3ccccc3n2)cc1` [SMR000567889], the figure is above 80 µM; as for `Cc1ccc(-c2nc(NC(=O)CSc3cc(C)c4ccccc4n3)ns2)cc1` [2-[(4-methyl-2-quinolyl)thio]-N-[5-(p-tolyl)-1,2,4-thiadiazol-3-yl]acetamide], above 80 µM. `Cc1ccc(-c2nc(NCCN3CCOCC3)c3ccccc3n2)cc1` [SMR000108805] had an IC50 above 80 µM. The same measure for `CCN(c1ccccc1)S(=O)(=O)c1cc(C(=O)O)ccc1C` [3-[ethyl(phenyl)sulfamoyl]-4-methyl-benzoic acid]: above 80 µM. As for `Cc1cccc2nc(-c3ccccc3)nc(N[C@@H](CO)c3ccccc3)c12` [(2R)-2-[(5-methyl-2-phenylquinazolin-4-yl)amino]-2-phenylethanol], the figure is above 80 µM; as for `O=C(OCCNc1nc(-c2ccccc2)nc2ccccc12)c1cccnc1` [3-pyridinecarboxylic acid 2-[(2-phenyl-4-quinazolinyl)amino]ethyl ester], above 80 µM; as for `CC(C)Oc1ccc(-c2nc(NCC3CCCO3)c3ccccc3n2)cc1` (configuration not stated) [SMR000433802], above 80 µM. The same measure for `Fc1ccccc1-c1nc(NCCCN2CCOCC2)c2ccccc2n1` [2-(2-fluorophenyl)-N-(3-morpholin-4-ylpropyl)quinazolin-4-amine]: above 80 µM. The molecule `c1ccc(-c2nc(NCCCn3ccnc3)c3ccccc3n2)cc1` [MLS001007021] displayed an IC50 above 80 µM. Molecule `Cc1nc(N)nc(N)c1-c1ccc([N+](=O)[O-])cc1` [6-methyl-5-(4-nitrophenyl)pyrimidine-2,4-diamine] showed an IC50 above 80 µM. As for `COc1ccc(/N=c2\[nH]c(=O)c3cc([N+](=O)[O-])ccc3s2)cc1` [2-(4-methoxyanilino)-6-nitro-1,3-benzothiazin-4-one], the figure is above 80 µM.

For the molecule `c1ccc(-c2nc(NCc3cccnc3)c3ccccc3n2)cc1`, the IC50 is above 80 µM. Regarding `Cc1ccccc1Nc1cc(C)c2c(=O)cccc-2[nH]1`, the IC50 was above 80 µM. As for `CN(C)c1nc(N)nc(/C(C#N)=C/C2CC3C=CC2C3)n1` (configuration not stated), the figure is above 80 µM; as for `O=c1cc(-c2cc3ccccc3o2)c2cc(O)ccc2o1` [MLS001167639], above 80 µM. The same measure for `COCCNc1nc(NCc2cccc(OC)c2OC)c2sccc2n1` [4-N-[(2,3-dimethoxyphenyl)methyl]-2-N-(2-methoxyethyl)thieno[3,2-d]pyrimidine-2,4-diamine]: above 80 µM; for `N=c1c(C(=O)NCc2ccc3c(c2)OCO3)cc2c(=O)n3ccccc3nc2n1Cc1cccnc1` [2-azanylidene-N-(1,3-benzodioxol-5-ylmethyl)-5-oxidanylidene-1-(pyridin-3-ylmethyl)dipyrido[1,2-d:3',4'-f]pyrimidine-3-carboxamide]: above 80 µM.

`CNc1nc(NC)c2c[nH]nc2n1` [4-N,6-N-dimethyl-1H-pyrazolo[3,4-d]pyrimidine-4,6-diamine] registered an IC50 above 80 µM. As for `Nc1nc(N)c(Cc2ccc(Cl)cc2Cl)c(N)n1` [MLS000691890], the figure is above 80 µM; as for `CCc1nc(N)nc(N)c1-c1ccc(NCCN)c([N+](=O)[O-])c1`, above 80 µM; as for `Clc1cccc(Cl)c1Cn1cnc(NCc2ccco2)c2ncnc1-2` [SMR000036870], above 80 µM. The same measure for `CC(C)OCCCNc1nc(-c2ccccc2)nc2ccccc12` [2-phenyl-N-(3-propan-2-yloxypropyl)-4-quinazolinamine;hydrochloride]: above 80 µM; for `O=C(CCCOc1ccc(Cl)cc1Cl)NNC(=O)c1ccc(NC(=O)c2ccccc2)cc1` [N-[4-[[4-[2,4-bis(chloranyl)phenoxy]butanoylamino]carbamoyl]phenyl]benzamide]: above 80 µM; for `CCOc1cc(CN=Nc2nc(O)c(CC(=O)O)s2)ccc1OCc1ccc(Cl)cc1Cl` [2-[2-[(N''E)-N''-[4-(2,4-dichlorobenzyl)oxy-3-ethoxy-benzylidene]hydrazino]-4-keto-2-thiazolin-5-yl]acetic acid]: 22.9 µM. As for `CCc1nc(N)nc(N)c1-c1ccc(Cl)c(N=[N+]=[N-])c1` [5-(3-azido-4-chlorophenyl)-6-ethylpyrimidine-2,4-diamine;ethanesulfonic acid], the figure is above 80 µM; as for `c1ccc(-c2nc(NCCCN3CCOCC3)c3ccccc3n2)cc1` [SMR000071192], above 80 µM. `CCCCC(=O)Nc1ccc(C(=O)NNC(=O)c2ccc(C)c(Br)c2)cc1` [N-(4-{[2-(3-bromo-4-methylbenzoyl)hydrazino]carbonyl}phenyl)pentanamide] displayed an IC50 above 80 µM.
